Reference: ChEMBL document CHEMBL3885881, “DrugMatrix”

Organism: Rattus norvegicus
Experiment: DrugMatrix - Regimen: Daily Repeat
Assay type: toxicity, organism-based, Sprague-Dawley
Set-up: regimen Daily Repeat, gender Male, age 6-8 weeks
Details: in vivo, po, route oral GAVAGE, […]; for ABSOLUTE BASOPHIL / ABSOLUTE EOSINOPHIL / ABSOLUTE LYMPHOCYTE / ABSOLUTE MONOCYTE / ABSOLUTE SEGMENTED NEUTROPHIL / BASOPHIL / EOSINOPHIL / ERYTHROCYTE COUNT / HEMATOCRIT / HEMOGLOBIN / LEUKOCYTE COUNT / LYMPHOCYTE / MEAN CORPUSCULAR HEMOGLOBIN / MEAN CORPUSCULAR HEMOGLOBIN CONCENTRATION / MEAN CORPUSCULAR VOLUME / MONOCYTE / NEUTROPHIL / NUCLEATED RED BLOOD CELLS / PLATELET COUNT: tissue Blood; for ALANINE AMINOTRANSFERASE / ALBUMIN / ALKALINE PHOSPHATASE / ASPARTATE AMINOTRANSFERASE / BLOOD UREA NITROGEN / CARBON DIOXIDE / CHLORIDE / CHOLESTEROL / CREATINE PHOSPHOKINASE / CREATININE / GLUCOSE / LACTATE DEHYDROGENASE / LIPASE / PHOSPHORUS / POTASSIUM / SODIUM / TOTAL BILIRUBIN / TOTAL PROTEIN / URIC ACID: tissue Plasma
[1] = 0 mg/kg, 72 h, dose level Control, time 3 day
[2] = 0 mg/kg, 120 h, dose level Control, time 5 day
[3] = 30 mg/kg, 72 h, dose level Low, time 3 day
[4] = 30 mg/kg, 120 h, dose level Low, time 5 day

CS(=O)(=O)Nc1ccc([N+](=O)[O-])cc1Oc1ccccc1 [NIMESULIDE] was tested, and the “ABSOLUTE BASOPHIL” value [1] was 0 CELLS/uL, the “ABSOLUTE EOSINOPHIL” value [1] was 0 CELLS/uL and the “ABSOLUTE LYMPHOCYTE” value [1] was 7601 CELLS/uL. For the same molecule, the “ABSOLUTE MONOCYTE” value [1] was 354.33 CELLS/uL, the “ABSOLUTE SEGMENTED NEUTROPHIL” value [1] was 744.67 CELLS/uL and the BASOPHIL [1] was 0%. For the same molecule, the EOSINOPHIL [1] was 0%, the “ERYTHROCYTE COUNT” value [1] was 5.03 x10E6/uL and the HEMATOCRIT [1] was 33.7%. The HEMOGLOBIN [1] was 13.43 G/DL, the “LEUKOCYTE COUNT” value [1] was 8.7 x10E3/uL and the LYMPHOCYTE [1] was 86.33%. For the same molecule, the “MEAN CORPUSCULAR HEMOGLOBIN” value [1] was 26.7 pg, the “MEAN CORPUSCULAR HEMOGLOBIN CONCENTRATION” value [1] was 39.83 G/DL and the “MEAN CORPUSCULAR VOLUME” value [1] was 67 fL. The MONOCYTE [1] was 4.67%, the NEUTROPHIL [1] was 9% and the “NUCLEATED RED BLOOD CELLS” value [1] was 0 /100WBC. For the same molecule, the “PLATELET COUNT” value [1] was 1151 x10E3/uL, the “ALANINE AMINOTRANSFERASE” value [1] was 97.67 u/L and the ALBUMIN [1] was 4.07 G/DL. For the same molecule, the “ALKALINE PHOSPHATASE” value [1] was 607.67 u/L, the “ASPARTATE AMINOTRANSFERASE” value [1] was 101 u/L and the “BLOOD UREA NITROGEN” value [1] was 13.33 mg/dL. The “CARBON DIOXIDE” value [1] was 36 mmol/L, the CHLORIDE [1] was 99.67 MEQ/L and the CHOLESTEROL [1] was 75.67 mg/dL. For the same molecule, the “CREATINE PHOSPHOKINASE” value [1] was 279.67 u/L, the CREATININE [1] was 0.16 mg/dL and the GLUCOSE [1] was 164 mg/dL. The “LACTATE DEHYDROGENASE” value [1] was 115 u/L, the LIPASE [1] was 12.67 u/L and the PHOSPHORUS [1] was 8.77 mg/dL. The POTASSIUM [1] was 5.79 MEQ/L, the SODIUM [1] was 142.83 MEQ/L and the “TOTAL BILIRUBIN” value [1] was 0.27 mg/dL. The “TOTAL PROTEIN” value [1] was 5.8 G/DL, the “URIC ACID” value [1] was 0.67 mg/dL and the “ABSOLUTE BASOPHIL” value [2] was 0 CELLS/uL. For the same molecule, the “ABSOLUTE EOSINOPHIL” value [2] was 0 CELLS/uL, the “ABSOLUTE LYMPHOCYTE” value [2] was 4426.33 CELLS/uL and the “ABSOLUTE MONOCYTE” value [2] was 102.67 CELLS/uL. The “ABSOLUTE SEGMENTED NEUTROPHIL” value [2] was 337.67 CELLS/uL, the BASOPHIL [2] was 0% and the EOSINOPHIL [2] was 0%. For the same molecule, the “ERYTHROCYTE COUNT” value [2] was 5.31 x10E6/uL, the HEMATOCRIT [2] was 32.5% and the HEMOGLOBIN [2] was 13.17 G/DL. For the same molecule, the “LEUKOCYTE COUNT” value [2] was 4.87 x10E3/uL, the LYMPHOCYTE [2] was 90.33% and the “MEAN CORPUSCULAR HEMOGLOBIN” value [2] was 24.93 pg. The “MEAN CORPUSCULAR HEMOGLOBIN CONCENTRATION” value [2] was 40.67 G/DL, the “MEAN CORPUSCULAR VOLUME” value [2] was 61.33 fL and the MONOCYTE [2] was 2.33%. For the same molecule, the NEUTROPHIL [2] was 7.33%, the “NUCLEATED RED BLOOD CELLS” value [2] was 0.33 /100WBC and the “PLATELET COUNT” value [2] was 848.33 x10E3/uL. The “ALANINE AMINOTRANSFERASE” value [2] was 59.67 u/L, the ALBUMIN [2] was 3.87 G/DL and the “ALKALINE PHOSPHATASE” value [2] was 452 u/L. For the same molecule, the “ASPARTATE AMINOTRANSFERASE” value [2] was 81.33 u/L, the “BLOOD UREA NITROGEN” value [2] was 13.67 mg/dL and the “CARBON DIOXIDE” value [2] was 26.33 mmol/L. The CHLORIDE [2] was 103.67 MEQ/L, the CHOLESTEROL [2] was 65.67 mg/dL and the “CREATINE PHOSPHOKINASE” value [2] was 355.33 u/L. The CREATININE [2] was 0.14 mg/dL, the GLUCOSE [2] was 171.33 mg/dL and the “LACTATE DEHYDROGENASE” value [2] was 118 u/L. For the same molecule, the LIPASE [2] was 11.33 u/L, the PHOSPHORUS [2] was 11.13 mg/dL and the POTASSIUM [2] was 5.18 MEQ/L. The SODIUM [2] was 143.17 MEQ/L, the “TOTAL BILIRUBIN” value [2] was 0.2 mg/dL and the “TOTAL PROTEIN” value [2] was 5.87 G/DL. For the same molecule, the “URIC ACID” value [2] was 0.63 mg/dL, the “ABSOLUTE BASOPHIL” value [3] was 0 CELLS/uL and the “ABSOLUTE EOSINOPHIL” value [3] was 25.33 CELLS/uL. The “ABSOLUTE LYMPHOCYTE” value [3] was 7491.33 CELLS/uL, the “ABSOLUTE MONOCYTE” value [3] was 125 CELLS/uL and the “ABSOLUTE SEGMENTED NEUTROPHIL” value [3] was 858.33 CELLS/uL. For the same molecule, the BASOPHIL [3] was 0%, the EOSINOPHIL [3] was 0.33% and the “ERYTHROCYTE COUNT” value [3] was 5.1 x10E6/uL. For the same molecule, the HEMATOCRIT [3] was 33.1%, the HEMOGLOBIN [3] was 12.87 G/DL and the “LEUKOCYTE COUNT” value [3] was 8.5 x10E3/uL. For the same molecule, the LYMPHOCYTE [3] was 88%, the “MEAN CORPUSCULAR HEMOGLOBIN” value [3] was 25.23 pg and the “MEAN CORPUSCULAR HEMOGLOBIN CONCENTRATION” value [3] was 38.87 G/DL. For the same molecule, the “MEAN CORPUSCULAR VOLUME” value [3] was 64.93 fL, the MONOCYTE [3] was 1.33% and the NEUTROPHIL [3] was 10.33%. The “NUCLEATED RED BLOOD CELLS” value [3] was 0 /100WBC, the “PLATELET COUNT” value [3] was 1037.67 x10E3/uL and the “ALANINE AMINOTRANSFERASE” value [3] was 125.67 u/L. The ALBUMIN [3] was 4.17 G/DL, the “ALKALINE PHOSPHATASE” value [3] was 434 u/L and the “ASPARTATE AMINOTRANSFERASE” value [3] was 117 u/L. For the same molecule, the “BLOOD UREA NITROGEN” value [3] was 11 mg/dL, the “CARBON DIOXIDE” value [3] was 35 mmol/L and the CHLORIDE [3] was 106.33 MEQ/L. The CHOLESTEROL [3] was 78 mg/dL, the “CREATINE PHOSPHOKINASE” value [3] was 456.33 u/L and the CREATININE [3] was 0.28 mg/dL. For the same molecule, the GLUCOSE [3] was 158.67 mg/dL, the “LACTATE DEHYDROGENASE” value [3] was 119.33 u/L and the LIPASE [3] was 11 u/L. For the same molecule, the PHOSPHORUS [3] was 8.8 mg/dL, the POTASSIUM [3] was 5.65 MEQ/L and the SODIUM [3] was 146.27 MEQ/L. The “TOTAL BILIRUBIN” value [3] was 0.13 mg/dL, the “TOTAL PROTEIN” value [3] was 5.7 G/DL and the “URIC ACID” value [3] was 0.63 mg/dL. The “ABSOLUTE BASOPHIL” value [4] was 0 CELLS/uL, the “ABSOLUTE EOSINOPHIL” value [4] was 83.33 CELLS/uL and the “ABSOLUTE LYMPHOCYTE” value [4] was 10811.33 CELLS/uL. The “ABSOLUTE MONOCYTE” value [4] was 335.67 CELLS/uL, the “ABSOLUTE SEGMENTED NEUTROPHIL” value [4] was 1536.33 CELLS/uL and the BASOPHIL [4] was 0%. The EOSINOPHIL [4] was 0.33%, the “ERYTHROCYTE COUNT” value [4] was 5.57 x10E6/uL and the HEMATOCRIT [4] was 36.37%. The HEMOGLOBIN [4] was 13.93 G/DL, the “LEUKOCYTE COUNT” value [4] was 12.77 x10E3/uL and the LYMPHOCYTE [4] was 87.33%. The “MEAN CORPUSCULAR HEMOGLOBIN” value [4] was 25 pg, the “MEAN CORPUSCULAR HEMOGLOBIN CONCENTRATION” value [4] was 38.33 G/DL and the “MEAN CORPUSCULAR VOLUME” value [4] was 65.23 fL. For the same molecule, the MONOCYTE [4] was 2.33%, the NEUTROPHIL [4] was 10% and the “NUCLEATED RED BLOOD CELLS” value [4] was 0 /100WBC. For the same molecule, the “PLATELET COUNT” value [4] was 1176 x10E3/uL, the “ALANINE AMINOTRANSFERASE” value [4] was 52 u/L and the ALBUMIN [4] was 4.27 G/DL. For the same molecule, the “ALKALINE PHOSPHATASE” value [4] was 326 u/L, the “ASPARTATE AMINOTRANSFERASE” value [4] was 65.67 u/L and the “BLOOD UREA NITROGEN” value [4] was 16 mg/dL. The “CARBON DIOXIDE” value [4] was 24.67 mmol/L, the CHLORIDE [4] was 108.33 MEQ/L and the CHOLESTEROL [4] was 74.67 mg/dL. For the same molecule, the “CREATINE PHOSPHOKINASE” value [4] was 187 u/L, the CREATININE [4] was 0.16 mg/dL and the GLUCOSE [4] was 176.33 mg/dL. For the same molecule, the “LACTATE DEHYDROGENASE” value [4] was 75.67 u/L, the LIPASE [4] was 10.33 u/L and the PHOSPHORUS [4] was 10.53 mg/dL. For the same molecule, the POTASSIUM [4] was 4.45 MEQ/L, the SODIUM [4] was 149.7 MEQ/L and the “TOTAL BILIRUBIN” value [4] was 0.1 mg/dL. For the same molecule, the “TOTAL PROTEIN” value [4] was 6.33 G/DL and the “URIC ACID” value [4] was 0.6 mg/dL.
